# Laboratory results as given in patent US12465626B2, “Traditional Chinese medicine composition with improving cognition effect, preparation method thereof and traditional Chinese medicine preparation” (Chenland Nutritionals, Inc., priority 2019, dated 2025).
# Assays:
# Assay type in all cases: in vivo
# mice [1] = assay: Novel object recognition test of mice
# Method: Adaptation period: on the first day, the mice were placed in the test room for 1 hour of environmental adaptation and familiarity, and then placed in the open field box for 20 minutes (there was no object in the box), so as to eliminate the impact of the open field box on the tested mice. After the experiment of each mouse, the open field box was cleaned with 75% ethanol.
# Familiarization period: on the second day (24 hours after the adaptation period), the mice were placed in the test room for 1 hour of environmental adaptation and familiarization, then two yellow cylindrical bottles of the same size and texture were placed at the left and right ends of the same side of the open field box as familiar objects, and then the mouse was put into the box with its back towards the objects. The mouse's exploration of the objects within 5 min was recorded (timing standard: the exploration time within 2 cm of the mouse's nose or mouth from the object, and its lying on the objects or just walking around the objects was not included). […]
# Test period: 2 h after the familiarization period, replace a yellow cylindrical bottle in the open field box was replaced with a green conical bottle of the same size as a strange object, and then the mouse was put into the box with its back towards the objects. […] The recognition index (RI) was calculated: RI=Tn/(Tn+Tf). […]
# mice [2] = assay: Step-down test of mice (scopolamine hydrobromide)
# Method: (§1) Statistical methods: the data were analyzed by GraphPad Prism 7.01 software (GraphPad Software, Inc., San Diego, California, USA). Before the parameter test of all group tests, the data were tested by normality test (Kolmogorov-Smirnov test) and variance homogeneity test (Levene test). Except for the escape latency in water maze, all test parameters were compared between groups by non paired T-test (single tail), and the test level was set as p<0.05. The escape latency in water maze was compared between two groups by two-way analysis of variance. The post test was conducted by Sidak's multiple comparisons test, and the test level was set as p<0.05.
# Test method: the grouping, sample preparation and modeling of mouse step-down test were the same as above. At the beginning of the test, the step-down training was carried out, where the adaptation was carried out for 3 min and then the power on training was carried out for 300 s. The test was conducted after 24 hours. The drug was administered 1 hour before the test, and scopolamine hydrobromide and normal saline were injected intraperitoneally 15-20 minutes before the test. Then the mouse was put on the platform and the latency of jumping off the platform for the first time and the number of errors (getting off the platform) within 300 s were recorded.
# mice [3] = assay: Morris water maze test, directional navigation experiment; settings: max 60 s
# Method: as §1
# (§2) Implementation method: the test procedure included two parts: directional navigation and space exploration. A total of 5 consecutive days were tested. The first part was the directional navigation experiment, which was tested on mice for 4 days, and the second part was the space exploration experiment, which was tested for 1 day. The melanin edible toner was […] to hide the platform, and it was kept in sharp contrast with the color of mice during camera shooting for easy tracking. The platform was located 0.8 cm below the water surface and the water depth was 21 cm. It was located in the NW quadrant. The water temperature in the water maze was maintained at a constant temperature of 22-24° C. with a heating rod.
# Directional navigation experiment: each mouse was trained 4 times a day, with an interval of 15-20 min. During the test, the water entry point was selected in a semi random way each time. The experimenter held the mouse by hand, made it face the pool wall, and gently put it into the water. In each training, if the mouse could find the platform within 60 s, and the time spent on the platform was more than 2 S, it was regarded as the sign of successful platform search. The time spent by the mice from entering the water to successful platform search was recorded as the latency. […] After the mice boarded the platform, the mice were kept on the platform for 10 s, so that they could carry out spatial learning and memory according to the reference objects of the four quadrants, and the tension of the mice were reduced. The average value of daily latency was calculated to evaluate the acquisition ability of animals' spatial memory.
# mice [4] = assay: Morris water maze test, space exploration experiment; settings: exploration period
# Method: as §1, §2
# Space exploration experiment: the platform was removed and each mouse was tested once for 60 s. The SE quadrant was selected and the mouse was gently put into the water facing the edge of the pool wall. The spatial memory ability of the animal was evaluated by the number of times the animal crossed the original platform position within 60 s, the run ratio and time ratio of the original platform quadrant (i.e. the ratio of the run and time of the animal's original platform quadrant to the total run and time).
# [5] = after intragastric administration
compound,measurement,setting,value
"C/C=C1\[C@H]2C=C(C)C[C@]1(N)c1ccc(=O)[nH]c1C2 [Positive drug, huperzine-A]",Recognition index (x[…]SE),"mice [1]; RI=Tn/(Tn+Tf), intragastric, dose (crude drug) 1.002 g/kg (Embodiment 1, Comparative examples 1, 2), 1.200 g/kg (Comparative example 3), 0.67 tablets/kg (positive drug), model group 0.4180, control 0.5715",0.5341 ± 0.0428
same,Recognition index compared with the model group,mice [1]; [5],increased significantly
same,Step-down latency compared with the model group,mice [2]; [5],significantly longer
same,Step-down number of errors compared with the model group,mice [2]; [5],significantly lower
same,Number of errors (x[…]SE),"mice [2]; errors within 300 s, doses as Table 3, model group 2.714, control 1.375",1.833 ± 0.3445
same,Latency/s,"mice [2]; latency of jumping off the platform, max 300 s, drug 1 hour before test, doses as Table 2, model group 42.01, control 100.3",94.12 ± 29.48 s
same,Escape latency First day (s) (x[…]SE),"mice [3]; first day, doses as Table 4, model group 53.2",52.7 ± 2.29 s
same,Escape latency Fourth day (s) (x[…]SE),"mice [3]; fourth day, model group 47.7",43.5 ± 2.83 s
same,Escape latency Second day (s) (x[…]SE),"mice [3]; second day, model group 44.2",44.5 ± 2.80 s
same,Escape latency Third day (s) (x[…]SE),"mice [3]; third day, model group 42.4",43.6 ± 2.91 s
same,Stay time in target quadrant/s (x[…]SE),"mice [4]; 60 s, model group 14.15, control 17.30",15.04 ± 0.9555 s
same,Number of crossing platform (x[…]SE),"mice [4]; within 60 s, model group 1.308, control 3.125",2.786 ± 0.4591
same,Escape latency compared with the model group,mice [4]; [5],significantly shorter
same,Number of crossing the platform compared with the model group,mice [4]; [5],significantly higher
same,Escape latency/s (x[…]SE),"mice [4]; doses as Table 5, model group 39.27, control 20.05",22.91 ± 3.922 s
same,Run distance of target quadrant/mm (x[…]SE),"mice [4]; model group 2373, control 2821",2867 ± 207.6 mm
